In ChEMBL document CHEMBL1144060, “Tetrin C, a new glycosylated polyene macrolide antibiotic produced by Streptomyces sp. GK9244” (J Nat Prod, 1999):
Converted amounts (≈) assume the structure as drawn.

Legend:
Umbelopsis ramanniana = test: Antifungal activity against Mortierella ramanniana; format: functional
Penicillium chrysogenum = test: Antifungal activity against Penicillium chrysogenum; format: functional
Candida albicans = test: Antifungal activity against Candida albicans; format: functional
P388 = test: Cytotoxicity against mouse P388 cells; format: functional, cell-based

Q: Which MIC (Umbelopsis ramanniana) does the source give for `C[C@H]1/C=C/C=C/C=C/C=C/[C@H](O[C@@H]2O[C@H](C)[C@@H](O)[C@H](N)[C@@H]2O)C[C@@H]2O[C@](O)(C[C@@H](O)CC(=O)C(=O)/C=C/C(=O)O[C@@H]1C)C[C@H](O)[C@H]2C(=O)O` [TETRIN C] here?
A: 5 µg/mL (≈ 7.21 µM)

Q: What about the MIC (Penicillium chrysogenum) of the same molecule?
A: 10 µg/mL (≈ 14.4 µM)

Q: What about the MIC (Candida albicans) of the same molecule?
A: 10 µg/mL (≈ 14.4 µM)

Q: What about the IC50 (P388) of the same molecule?
A: 4.6 µg/mL (≈ 6.63 µM)
